Columns and labels:
GHSR1a [1] = molecular target: T1, GHSR1a (Homo sapiens, UniProt Q92847); test: Calcium FLIPR assay, GHSR-1a antagonism (reduction of ghrelin response); format: cell-based; details: HEK293/GHSR1a cells, ghrelin 10 nM
T1 construct: expressed in transfected cells; host or cells: HEK293
Procedure, shortened: (§1)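 Cells stably carrying human GHSR1a were plated a day ahead, dye-loaded, then given test compound. Agonist activity was the calcium rise over 2 minutes after compound addition at t=20 sec; antagonist activity was the reduction of the response to 10 nM ghrelin added together with compound.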

GHSR1a [2] = molecular target: T1, GHSR1a; test: Calcium FLIPR assay, GHSR-1a agonism; format: cell-based; design: Emax: unit not given here; details: HEK293/GHSR1a cells
Procedure, shortened: as §1

T1 sequence (Q92847 whole entry): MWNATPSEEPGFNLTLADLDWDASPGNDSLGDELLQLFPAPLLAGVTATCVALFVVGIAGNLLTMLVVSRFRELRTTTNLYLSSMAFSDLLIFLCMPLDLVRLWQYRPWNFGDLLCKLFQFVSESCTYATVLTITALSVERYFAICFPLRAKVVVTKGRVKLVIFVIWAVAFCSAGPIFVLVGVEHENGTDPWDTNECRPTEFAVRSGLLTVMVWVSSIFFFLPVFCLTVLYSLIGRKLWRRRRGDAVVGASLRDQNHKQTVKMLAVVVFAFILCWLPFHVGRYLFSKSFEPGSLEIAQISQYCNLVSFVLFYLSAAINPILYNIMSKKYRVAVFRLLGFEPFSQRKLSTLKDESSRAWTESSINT

CC(NC(=O)N(C)C1CCN(C)CC1)c1ccc(-c2cnc(O)nc2)c(Cl)c1Cl (centres unmarked) [Compound H0797, 3-(1-(2,3-dichloro-4-(2-hydroxypyrimidin-5-yl)phenyl)ethyl)-1-methyl-1-(1-methylpiperidin-4-yl)urea]
IC50 (GHSR1a [1]): 594 nM | EC50 (GHSR1a [2]): 1800 nM | Emax (GHSR1a [2]): 2879

CC(NC(=O)N(C)C1CCN(C)CC1)c1ccc(-c2cnc(N)nc2)c(Cl)c1Cl (centres unmarked) [Compound H0798, 3-(1-(4-(2-aminopyrimidin-5-yl)-2,3-dichlorophenyl)ethyl)-1-methyl-1-(1-methylpiperidin-4-yl)urea]
IC50 (GHSR1a [1]): 162 nM | EC50 (GHSR1a [2]): > 30000 nM

CC(NC(=O)N(C)C1CCN(C)CC1)c1ccc(-c2cnc(N3CCN(C)CC3)nc2)c(Cl)c1Cl (centres unmarked) [Compound H0799, 3-(1-(2,3-dichloro-4-(2-(4-methylpiperazin-1-yl)pyrimidin-5-yl)phenyl)ethyl)-1-methyl-1-(1-methylpiperidin-4-yl)urea]
IC50 (GHSR1a [1]): 5.4 nM | EC50 (GHSR1a [2]): 14 nM | Emax (GHSR1a [2]): 5031

CC(NC(=O)N(C)C1CCN(C)CC1)c1ccc(-c2cnc(F)nc2)c(Cl)c1Cl (centres unmarked) [Compound H0800, 3-(1-(2,3-dichloro-4-(2-fluoropyrimidin-5-yl)phenyl)ethyl)-1-methyl-1-(1-methylpiperidin-4-yl)urea]
IC50 (GHSR1a [1]): 1300 nM | EC50 (GHSR1a [2]): > 30000 nM

CC(NC(=O)N(C)C1CCN(C)CC1)c1ccc(-c2cnc(Cl)nc2)c(Cl)c1Cl (centres unmarked) [Compound H0801, 3-(1-(2,3-dichloro-4-(2-chloropyrimidin-5-yl)phenyl)ethyl)-1-methyl-1-(1-methylpiperidin-4-yl)urea]
IC50 (GHSR1a [1]): 20 nM | EC50 (GHSR1a [2]): 45 nM | Emax (GHSR1a [2]): 3915

CC(NC(=O)N(C)C1CCN(C)CC1)c1ccc(-c2cnc(C#N)nc2)c(Cl)c1Cl (centres unmarked) [Compound H0802, 3-(1-(2,3-dichloro-4-(2-cyanopyrimidin-5-yl)phenyl)ethyl)-1-methyl-1-(1-methylpiperidin-4-yl)urea]
IC50 (GHSR1a [1]): 99 nM | EC50 (GHSR1a [2]): 153 nM | Emax (GHSR1a [2]): 4149

CC(NC(=O)N(C)C1CCN(C)CC1)c1ccc(-c2cnc(-n3ccnc3)nc2)c(Cl)c1Cl (centres unmarked) [Compound H0803, 3-(1-(4-(2-(1H-imidazol-1-yl)pyrimidin-5-yl)-2,3-dichlorophenyl)ethyl)-1-methyl-1-(1-methylpiperidin-4-yl)urea]
IC50 (GHSR1a [1]): 171 nM | EC50 (GHSR1a [2]): 149 nM | Emax (GHSR1a [2]): 2364

CC(NC(=O)N(C)C1CCN(C)CC1)c1ccc(-c2cnc(N(C)C)nc2)c(Cl)c1Cl (centres unmarked) [Compound H0804, 3-(1-(2,3-dichloro-4-(2-(dimethylamino)pyrimidin-5-yl)phenyl)ethyl)-1-methyl-1-(1-methylpiperidin-4-yl)urea]
IC50 (GHSR1a [1]): 375 nM | EC50 (GHSR1a [2]): 263 nM | Emax (GHSR1a [2]): 2740

CC(NC(=O)N(C)C1CCN(C)CC1)c1ccc(-c2cnc(NC3CC3)nc2)c(Cl)c1Cl (centres unmarked) [Compound H0805, 3-(1-(2,3-dichloro-4-(2-(cyclopropylamino)pyrimidin-5-yl)phenyl)ethyl)-1-methyl-1-(1-methylpiperidin-4-yl)urea]
IC50 (GHSR1a [1]): 4 nM | EC50 (GHSR1a [2]): 9 nM | Emax (GHSR1a [2]): 5433

CNc1ncc(-c2ccc(C(C)NC(=O)N(C)C3CCN(C)CC3)c(Cl)c2Cl)cn1 (centres unmarked) [Compound H0806, 3-(1-(2,3-dichloro-4-(2-(methylamino)pyrimidin-5-yl)phenyl)ethyl)-1-methyl-1-(1-methylpiperidin-4-yl)urea]
IC50 (GHSR1a [1]): 1.2 nM | EC50 (GHSR1a [2]): 6.8 nM | Emax (GHSR1a [2]): 5751

CC(NC(=O)N(C)C1CCN(C)CC1)c1ccc(-c2cnc(NC(=O)C3CC3)nc2)c(Cl)c1Cl (centres unmarked) [Compound H0807, N-(5-(2,3-dichloro-4-(1-(3-methyl-3-(1-methylpiperidin-4-yl)ureido)ethyl)phenyl)pyrimidin-2-yl)cyclopropanecarboxamide]
IC50 (GHSR1a [1]): 14 nM | EC50 (GHSR1a [2]): 24 nM | Emax (GHSR1a [2]): 3669

Cc1cc(-c2ccc(C(C)NC(=O)N(C)C3CCN(C)CC3)c(Cl)c2Cl)ncn1 (centres unmarked) [Compound H0808, 3-(1-(2,3-dichloro-4-(6-methylpyrimidin-4-yl)phenyl)ethyl)-1-methyl-1-(1-methylpiperidin-4-yl)urea]
IC50 (GHSR1a [1]): 674 nM | EC50 (GHSR1a [2]): 90 nM | Emax (GHSR1a [2]): 1494

CC(NC(=O)N(C)C1CCN(C)CC1)c1ccc(-c2ccc(C#N)cc2)c(Cl)c1Cl (centres unmarked) [Compound H0809, 3-(1-(2,3-dichloro-4′-cyano-[1,1′-biphenyl]-4-yl)ethyl)-1-methyl-1-(1-methylpiperidin-4-yl)urea]
IC50 (GHSR1a [1]): 149 nM | EC50 (GHSR1a [2]): 217 nM | Emax (GHSR1a [2]): 2339

CC(NC(=O)N(C)C1CCN(C)CC1)c1ccc(-c2cccc(F)c2)c(Cl)c1Cl (centres unmarked) [Compound H0810, 3-(1-(2,3-dichloro-3′-fluoro-[1,1′-biphenyl]-4-yl)ethyl)-1-methyl-1-(1-methylpiperidin-4-yl)urea]
IC50 (GHSR1a [1]): 20 nM | EC50 (GHSR1a [2]): 22 nM | Emax (GHSR1a [2]): 2339

CC(NC(=O)N(C)C1CCN(C)CC1)c1ccc(C#CCN2CCN(C)CC2)c(Cl)c1Cl (centres unmarked) [Compound H0812, 3-(1-(2,3-dichloro-4-(3-(4-methylpiperazin-1-yl)prop-1-yn-1-yl)phenyl)ethyl)-1-methyl-1-(1-methylpiperidin-4-yl)urea]
IC50 (GHSR1a [1]): 1200 nM | EC50 (GHSR1a [2]): 1500 nM | Emax (GHSR1a [2]): 871

CC(NC(=O)N(C)C1CCN(C)CC1)c1ccc(-c2cnc(N3CCCC3)nc2)c(Cl)c1Cl (centres unmarked) [Compound H0813]
IC50 (GHSR1a [1]): 644 nM | EC50 (GHSR1a [2]): 528 nM | Emax (GHSR1a [2]): 1605

CCN1CCN(c2ncc(-c3ccc(C(C)NC(=O)N(C)C4CCN(C)CC4)c(Cl)c3Cl)cn2)CC1=O (centres unmarked) [Compound H0814, 3-(1-(2,3-dichloro-4-(2-(4-ethyl-3-oxopiperazin-1-yl)pyrimidin-5-yl)phenyl)ethyl)-1-methyl-1-(1-methylpiperidin-4-yl)urea]
IC50 (GHSR1a [1]): 926 nM | EC50 (GHSR1a [2]): 15 nM | Emax (GHSR1a [2]): 1097

Cc1cncc(-c2ccc(C(C)NC(=O)N(C)C3CCN(C)CC3)c(Cl)c2Cl)n1 (centres unmarked) [Compound H0815, 3-(1-(2,3-dichloro-4-(6-methylpyrazin-2-yl)phenyl)ethyl)-1-methyl-1-(1-methylpiperidin-4-yl)urea]
IC50 (GHSR1a [1]): 176 nM | EC50 (GHSR1a [2]): > 30000 nM

CC(NC(=O)N(C)C1CCN(C)CC1)c1ccc(-c2ccc(C3CC3)nc2)c(Cl)c1Cl (centres unmarked) [Compound H0820, 3-(1-(2,3-dichloro-4-(6-cyclopropylpyridin-3-yl)phenyl)ethyl)-1-methyl-1-(1-methylpiperidin-4-yl)urea]
IC50 (GHSR1a [1]): 5.7 nM | EC50 (GHSR1a [2]): 9 nM | Emax (GHSR1a [2]): 3955

CC(NC(=O)N(C)C1CCN(C)CC1)c1ccc(-c2cnc(N3CCN(C)CC3)c(C#N)c2)c(Cl)c1Cl (centres unmarked) [Compound H0821, 3-(1-(2,3-dichloro-4-(5-cyano-6-(4-methylpiperazin-1-yl)pyridin-3-yl)phenyl)ethyl)-1-methyl-1-(1-methylpiperidin-4-yl)urea]
IC50 (GHSR1a [1]): 2300 nM | EC50 (GHSR1a [2]): > 30000 nM

CC(NC(=O)N(C)C1CCN(C)CC1)c1ccc(-c2cnc(N3CCN(C)CC3)cn2)c(Cl)c1Cl (centres unmarked) [Compound H0822, 3-(1-(2,3-dichloro-4-(5-(4-methylpiperazin-1-yl)pyrazin-2-yl)phenyl)ethyl)-1-methyl-1-(1-methylpiperidin-4-yl)urea]
IC50 (GHSR1a [1]): 1200 nM | EC50 (GHSR1a [2]): > 30000 nM

CCCN(C(=O)NC(C)c1ccc(-c2cnccn2)c(Cl)c1Cl)C1CCN(C)CC1 (centres unmarked) [Compound H0827, 3-(1-(2,3-dichloro-4-(pyrazin-2-yl)phenyl)ethyl)-1-(1-methylpiperidin-4-yl)-1-propylurea]
IC50 (GHSR1a [1]): 35 nM | EC50 (GHSR1a [2]): > 30000 nM

CC(NC(=O)N(C)C1CCN(C)CC1)c1ccc(-c2cnc3ccccc3n2)c(Cl)c1Cl (centres unmarked) [Compound H0828, 3-(1-(2,3-dichloro-4-(quinoxalin-2-yl)phenyl)ethyl)-1-methyl-1-(1-methylpiperidin-4-yl)urea]
IC50 (GHSR1a [1]): 376 nM | EC50 (GHSR1a [2]): > 30000 nM

Cc1nccnc1-c1ccc(C(C)NC(=O)N(C)C2CCN(C)CC2)c(Cl)c1Cl (centres unmarked) [Compound H0831, 3-(1-(2,3-dichloro-4-(3-methylpyrazin-2-yl)phenyl)ethyl)-1-methyl-1-(1-methylpiperidin-4-yl)urea]
IC50 (GHSR1a [1]): 1200 nM | EC50 (GHSR1a [2]): > 30000 nM

CC#Cc1ccc(C(C)NC(=O)N(C)C2CCN(C)CC2)c(Cl)c1Cl (centres unmarked) [Compound H0832, 3-(1-(2,3-dichloro-4-(prop-1-yn-1-yl)phenyl)ethyl)-1-methyl-1-(1-methylpiperidin-4-yl)urea]
IC50 (GHSR1a [1]): 11 nM | EC50 (GHSR1a [2]): > 30000 nM

CC(NC(=O)N(C)C1CCN(C)CC1)c1ccc(-c2cnn(C3CC3)c2)c(Cl)c1Cl (centres unmarked) [Compound H0842, 3-(1-(2,3-dichloro-4-(1-cyclopropyl-1H-pyrazol-4-yl)phenyl)ethyl)-1-methyl-1-(1-methylpiperidin-4-yl)urea]
IC50 (GHSR1a [1]): 64 nM | EC50 (GHSR1a [2]): 67 nM | Emax (GHSR1a [2]): 1411

Cc1nccnc1-c1ccc(C(C)NC(=O)N(C)[C@@H]2CCN(C)CC2(C)C)c(Cl)c1Cl (stereo partly drawn) [Compound H0843, 3-(1-(2,3-dichloro-4-(3-methylpyrazin-2-yl)phenyl)ethyl)-1-methyl-1-((R)-1,3,3-trimethylpiperidin-4-yl)urea]
IC50 (GHSR1a [1]): 35 nM | EC50 (GHSR1a [2]): 51 nM | Emax (GHSR1a [2]): 1910

Cc1nccnc1-c1ccc(C(CC2CC2)NC(=O)N(C)C2CCN(C)CC2)c(Cl)c1Cl (centres unmarked) [Compound H0844, 3-(2-cyclopropyl-1-(2,3-dichloro-4-(3-methylpyrazin-2-yl)phenyl)ethyl)-1-methyl-1-(1-methylpiperidin-4-yl)urea]
IC50 (GHSR1a [1]): 705 nM | EC50 (GHSR1a [2]): > 30000 nM

CC(NC(=O)N(C)C1CCN(C)CC1)c1ccc(NC2CC2)c(Cl)c1Cl (centres unmarked) [Compound H0846, 3-(1-(2,3-dichloro-4-(cyclopropylamino)phenyl)ethyl)-1-methyl-1-(1-methylpiperidin-4-yl)urea]
IC50 (GHSR1a [1]): 170 nM | EC50 (GHSR1a [2]): 130 nM | Emax (GHSR1a [2]): 3815

CC(NC(=O)N(C)C1CCN(C)CC1)c1ccc(-c2ccc(C3CC3)cn2)c(Cl)c1Cl (centres unmarked) [Compound H0849, 3-(1-(2,3-dichloro-4-(5-cyclopropylpyridin-2-yl)phenyl)ethyl)-1-methyl-1-(1-methylpiperidin-4-yl)urea]
IC50 (GHSR1a [1]): 37 nM | EC50 (GHSR1a [2]): 51 nM | Emax (GHSR1a [2]): 1383
